From US10159676B2, “Induction of tumor hypoxia for cancer therapy” (Virginia Commonwealth University, priority 2008, dated 2018)
Entries after “also recorded” stand apart in the source; their conditions may differ.

What was measured:
UCI-101 tumor xenografts = assay: Tumor xenograft size after multiple dosing (days 8, 10, 12); type: in vivo, nude mice; details: ip on days 8, 10 and 12; stilbene 5c 50 mg/kg, tirapazamine 60 mg/kg; day 14; 6 mice per group
Procedure: The long and short axes of tumor were measured to calculate tumor size and plotted against days. Each treatment group contains 6 mice.
Mice were then sacrificed at day 14. The long and short axes of tumors were measured to calculate tumor size and plotted against days. Each treatment group contains 6 mice.
Tumor cell lines used in this study include UCI-101 ovarian cancer cells and Hep3B hepatocellular carcinoma cells. Cells are grown in IMEM and DMEM, respectively, supplemented with 10% fetal bovine serum, glutamine, and penicillium/streptomycin in 5% CO2 humidified environment. When cells were grown to 80% confluent, cells were harvested with 1% trypsin and washed with phosphate-buffered saline three times before injected subcutaneously into nude mice. For mouse xenograft studies, 2×10^6 tumor cells were injected in the back subcutaneously. Nude mice were purchased from NCI Development Therapeutic Program as described. Tumor size was monitored by long and short axes (a and b, respectively) by a caliber and tumor volume was calculated by the formula ab^2/2. […] Treatment with AAA bevacizumab was done by tail vein injection at a dose of 10 mg/kg.
Next we measured the size of tumor xenografts after multiple dosing. Nude mice were injected subcutaneously with UCI-101 cells and tumor became visible after day 7. […] Tumor xenografts were measured and sizes are plotted in FIG. 7.

UCI101 tumor xenografts [1] = assay: Tumor and normal organ perfusion by DCE-MRI (gadolinium accumulation); type: in vivo, nude mice; details: stilbene 5c 50 mg/kg intraperitoneal, 4 hours after injection, same mice before vs after
Procedure: FIGS. 1A and B. Study of tumor perfusion using accumulation of gadolinium at 30 min after gadolinium injection. (A) T1-weighted images before and after stilbene 5c treatment in the same mouse. Nude mice with established subcutaneously UCI101 tumor xenografts were analyzed with DCE-MRI for tumor perfusion. DCE-MRI images were collected for 30 min after injection of gadolinium (OmniScan) into tail veins. The same mice were studied before and after stilbene 5c treatment to avoid individual variation. The left panels show the T1-weighted images before injection of gadolinium. The right panels show images at 30 min after injection of gadolinium. […] (B) Average of calculated gadolinium concentrations in tumor and muscle before and after stilbene 5c treatment. […]
Nude mice with tumor xenografts were anesthetized with 1% isoflurane and mixed oxygen. […] After the initial rate is established, subsequent MRI studies focused on the sustained increase in gadolinium signals, which also provide qualitative and quantitative information for tissue perfusion. […]
Stilbene 5c was investigated to examine whether it can suppress tumor blood flow and eventually lead to tumor hypoxia. […] After injected with 20 μl of gadolinium (OmniScan) via the tail vein, mice were analyzed with a rapid sequence MRI every minute for total of 30 min. […]

UCI101 tumor xenografts [2] = assay: Tumor necrosis in H&E sections three days after treatment; details: tirapazamine 60 mg/kg ip, 60 min later stilbene 5c 50 mg/kg ip; sacrificed three days later
Procedure: Mice were sacrificed three days later and tumors were harvested for H&E section. […] The portion of tumor that stained darker is viable, whereas the portion in lighter color is the necrotic area.
After 60 min, stilbene 5c was administered intraperitoneally at 50 mg/kg, which has been established to be capable of inducing profound tumor hypoxia within minutes (FIG. 3). […] Mice were then sacrificed three days later. Tumors were harvested and the center portion of tumor was sliced and analyzed with histological section and H&E staining.

UCI tumor xenograft = assay: Microvascular density by anti-CD34 immunohistochemistry and H & E staining of tumor and normal organs; type: in vivo, nude mice
Procedure: FIGS. 2A-B. Stilbene 5c treatment decreases microvascular density in tumor but not in normal organs. Nude mice with UCI tumor xenograft were treated with 10% DMSO or stilbene 5c at 50 mg/kg intraperitoneally. Mice were sacrificed at 4 hours after injection, and various organs and tumor were harvested for fixation and standard hematoxylin and eosin (H & E) staining. Immunohistochemical staining of each section was performed with anti-CD34 antibody to quantify the microvascular density. In the original immunohistochemical stained sections, brown staining indicated a positive signal for CD34 staining. (A) Shown are the black and white pictures in 200× fold magnification. The numbers of positive signals in each CD34 stained picture are counted and are shown in the right lower corner of each panel. (B) The averages and standard deviations of 4 different fields that show the most abundant microvascular density are plotted in a histogram. The sections from kidney cannot be scored due to the fact that all vessels around renal tubules are fused into a large network in the picture.
After mice were sacrificed, major organs and tumors were dissected and fixed in 10% formalin. Tissues were embedded in paraffin and sections were stained with H & E, and with antibody against CD34 for quantification of microvascular density. The scoring of microvascular density was based on the methods described by Weidner et al. by counting the CD34-positive signals in a photo frame of 200× magnification using Nikon ECLIPSE E800M microscope equipped with a Diagnostic Instruments Spot RT CCD camera.
We took tissues that were studied with DCE-MRI to investigate the vascular density of tumor and correlate with the results from DCE-MRI-derived vascular perfusion studies. We particularly examined sections from heart and brain, where the toxicity of colchicine site inhibitors was observed. Tissue sections were stained with standard H & E and anti-CD34 (an endothelial marker) antibody by immunohistochemistry staining. […] There was also no histological difference in tumor either. We then used anti-CD34 staining to score microvascular density in tumor and various normal organs (54, 55). The results are indicated at the right lower corner of each panel except kidney, which cannot be scored due to fusion of the capillary network rather than discrete dots or tubes in appearance.

COc1cc(/C=C\c2ccc(OC)c(N)c2)cc(OC)c1 [stilbene 5c, cis-3, 4′, 5-trimethoxy-3′-aminostilbene]
size of tumor compared with the control (UCI-101 tumor xenografts): about 50%
concentration of gadolinium in tumor after stilbene 5c treatment (decreased to, average) (UCI101 tumor xenografts [1]; 30 min after gadolinium, 6 mice): 62.8%
concentration of gadolinium in muscle after stilbene 5c treatment (UCI101 tumor xenografts [1]): no significant change; also recorded: did not change
area of tumor necrosis (H&E, qualitative) (UCI101 tumor xenografts [2]): very small areas of tumor necrosis
decrease of tumor vascular density (CD34) (UCI tumor xenograft; 50 mg/kg intraperitoneally, 4 hours after injection, vs 10% DMSO): ~4 fold
H & E staining changes in major organs (UCI tumor xenograft; after stilbene 5c treatment): did not show any significant changes
microvascular density of tumor decreased to (CD34) (UCI tumor xenograft; after stilbene 5c treatment): nearly one fourth
microvascular density of normal organs (heart, liver, kidney, brain) (UCI tumor xenograft; after stilbene 5c treatment 50 mg/kg intraperitoneally): does not change
